Entries after “also recorded” stand apart in the source; their conditions may differ. Where a SMILES comes first, the peptide text is derived from it. The star is where a group is joined. Cbz = O=C(OCc1ccccc1)*; OtBu = CC(C)(C)O*
What was measured:
[1] = target: T1, proteasomal activity in HeLa-cells (Homo sapiens, UniProt P20618+P28074); assay: Intracellular inhibition of proteasomes in cultivated HeLa-cells; assay type: cell-based; details: for reduction of the proteolytic activity in cells at 10 nM: HeLa cells; for membrane-permeation / stability during the incubation periods / proteasomal activity reduced to: cultivated cells; for proteasomal activity reduced to: remaining activity
T1 construct: endogenous in cells; host or cells: HeLa
Procedure: A, HeLa-cells were cultivated were 24 hours in the presence of the inhibitor. The protein concentration was determined in accordance with the cellular lysis according to Bradford in order to normalise the proteasomal activities to the different amounts of cells. Subsequently Complete (Roche) was added to all lysates, and the proteasomal activity was determined through the hydrolysis of Suc-LLVY-AMC. B, HeLa-cells was incubated with 1 μM of compound 15 for 2, 4, 6 and 24 hours. Cells were lysed, and proteins were separated through SDS-PAGE on a 10% gel, blotted to a PVDF-membrane. The accumulation of the poly-ubiquitinylated proteins was detected in a Western blot by an anti-ubiquitine-antibody (DAKO). C, HeLa-Cells were treated with increasing concentrations of the inhibitor 15, 25, 26, 27, and 28 for 24 hours (lane 1: without inhibitor; lane 2: 10 nM; lane 3: 100 nM and lane 4: 1 μM of the given inhibitor). Cells were lysed, proteins were separated on 15% gels, and the accumulation of the poly-ubiquitinylated proteins was controlled through Western blot.
HeLa-Cells were cultivated in RPMI, supplemented with 10% FCS and penicillin/streptomycin, at 5% CO2. Inhibitors were administered from 100×-stock solutions (in DMSO) at the final concentrations as indicated, and incubated with the cells for at least 20 hours.
Cultivated cells (HeLa) were harvested lysed and with 0.1% NP40 in TEAD in the presence of the commercially available protease-inhibitor-mixture Complete (Roche). The proteasomal activity was measured in 10 μl of the lysate using Suc-LLVY-AMC as a substrate. The protein content was quantified by means of Bradford (Protein assay; BioRad).
An application on cell cultures or animals requires that the concentrations of the inhibitors are chose as low as required. The specific proteasomal activity was reduced to a value of below 50% in cells that were treated with 1 μM of the compounds 15, 22, 25, 26, or 28, respectively (FIG. 6A).

[2] = target: T2, 20S proteasome β5 chymotrypsin-like activity (Suc-LLVY-AMC) (Homo sapiens, UniProt P20618+P28074); assay: Protease assay, chymotrypsin-like activity of isolated 20S proteasomes (LLVY substrate); assay type: biochemical; details: isolated 20S proteasome; LLVY-MCA 50 μM; 15 min pre-incubation; read-out: IC50 β5 Chymotrypsin-like (Y)
T2 construct: Proteasomes were isolated from red blood cells; from tissue; host or cells: red blood cells
Procedure: Proteasomes were isolated from red blood cells. Cells were lysed with DTT (1 mM), and the stroma-free supernatant was loaded on DEAE-sepharose (Toyopearls). Proteasome was eluted with an NaCl-gradient in TEAD (20 mM TrisCl pH 7.4, 1 mM EDTA, 1 mM azide, 1 mM DTT) of 100 to 300 mM NaCl. Proteasome was concentrated using ammonium sulfate-precipitation (between 40 and 70% saturation) and was separated in a 10-40% sucrose-gradient through centrifugation at 40.000 rpm for 16 hours (SW40; L7, Beckman & Coulter). Finally, the proteasomes were purified on a MonoQ-column and eluted with an NaCl-gradient at about 280 mM NaCl. The fractions containing purified proteasome were dialysed against 50 mM NaCl in TEAD and stored on ice. The purity was determined using SDS-PAGE.
Suc-LLVY-AMC, Z-VGR-AMC and LLE-AMC (BACHEM, Calbiochem) was used, in order to determine the chymotrypsin-like, trypsin-like or caspase-like (post-acidic)-activities of the proteasome. Substrate was incubated with proteasome at 37° C. in assay-buffer (20 mM Tris/Cl, pH 7.2, 1 mM EDTA, 1 mM DTT) for one hour. 100 ng proteasome was pre-incubated with 0.01-10 μM of the inhibitor for […]. The reaction was started by the addition of substrate (50 μM). The AMC as released was detected using fluorescence emission at 460 nm (excitation at 390 nm) using a TECAN-fluorimeter. The activity was calculated in fluorescence-units. The inhibition is depicted by IC50-values.
The chymotrypsin-like (Suc-LLVY-AMC), the trypsin-like (Bz-VGR-AMC), and the caspase-like (Z-LLE-AMC)-activities of 20S proteasomes were determined following incubation for one hour at 37° C.
The IC50-values form the inhibition of the proteasome were calculated at increasing concentrations of the inhibitor. The samples were pre-incubated for 15 min in ice. The assay was started through the addition of 50 μM of one of the following fluorogenic peptide substrates:
The release of MCA was determined at 460 nm emission (excitation 390 nm). The IC50-values as calculated for MG132 served as controls.

HeLa-cells = assay: Viability of HeLa-cells, crystal violet-staining; assay type: cell-based; details: for rate of survival of HeLa-cells: 10 μM, 20 hours
Procedure: A, The viability of HeLa-Cells that were incubated with the compounds 7-28 and MG132 (1 μM), was determined using crystal-violet-staining after 20 h.
B, The viability of HeLa-Cells is dependent from the concentration of the inhibitor. HeLa-cells were cultivated for 20 hours in the presence of increasing concentrations (10 to 10000 nM) of the compounds (7, 13, 15, 18, 20-22, 24-28) and MG 132. The survival of the cells was determined using crystal-violet-staining.
The viability of Hela-Cells in the presence of different compounds was tested in […]. The viability of HeLa-cells was tested through crystal violet-staining following the incubation with the inhibitors. The cells were washed once with PBS, fixed with 1% glutardialdehyde for 30 min, and washed again. Finally, the fixed cells were stained with 0.1% crystal violet in PBS for 30 min, and subsequently carefully washed with water, in order to remove unbound dye. The residual dye was eluted with 0.1% Triton X-100 in PBS, and determined at 550 nm.

[3] = test system: caspase 3/7 activation in HeLa-cells; assay: Apoptosis-assay, caspase 3/7-activity (Apo-One); assay type: cell-based; details: 1 μM, 20 hours
Procedure: HeLa-cells that were cultivated for 20 hours in the presence of the given inhibitor, were subsequently incubated for 2 hours with caspase-substrate (Apo-One; Promega). The activation of caspases 3/7 was measured at 538 nm (excitation at 485 nm). Treatment of the cells with TNFα or with MG132 served as control.
For this, 10,000 HeLa-cells pro well were seeded in a 96-well-plate, and co-cultivated for 20 hours with 1 μM of the inhibitors 7, 8, 11, 13-16, 18, 20-23 and 25-28. The induction of apoptosis was determined by measuring of the caspase 3/7-activity (Apo-One®-Assay, Promega).

Row | reduction of the proteolytic activity in cells at 10 nM [1] | stability during the incubation periods [1] | proteasomal activity reduced to [1] | IC50 [2] | SMILES | membrane-permeation [1] | toxicity (HeLa-cells) | rate of survival of HeLa-cells (HeLa-cells) | induction of apoptosis (activation of caspase 3 and 7) [3]
1 | reduction of the proteolytic activity | sufficient stability | 10% | 58 nM | CC(C)CC(C=O)NC(=O)C(CC(=O)OC(C)(C)C)NC(=O)C(CC(C)C)NC(=O)OCc1ccccc1 (stereo not drawn) [Compound 15, Z-Leu-Asp(O^tBu)Leu-CHO] (Cbz-Leu-Asp(OtBu)-Leu-aldehyde; configuration not given here) | able to penetrate cellular membranes; also recorded: membrane-permeation | low toxicity | markedly reduced | beginning apoptosis; also recorded: strong induction of apoptosis
2 | reduction of the proteolytic activity | sufficient stability | 10% | 72 nM | CC(C)C[C@H](NC(=O)OCc1ccccc1)C(=O)N[C@@H](CC(C)C)C(=O)N[C@@H](CC(C)C)C(=O)C(=O)Nc1ccccc1 [Compound 28] | membrane-permeation |  | markedly reduced | beginning apoptosis; also recorded: strong induction of apoptosis

Reference: patent US8835392B2, “Mimetic peptides and the use thereof in the form of 20S, 26S and immunoproteasome inhibitors” (Technische Universität, priority 2005, dated 2014)
